Data taken from patent US20060069132A1, “Azolecarboxamide herbicides” (priority 2004, published 2006).

How the values were obtained:
morningglory [1] = assay: Test A pre-/postemergence herbicide test; format: in vivo, Ipomoea spp.
How it was run: (§1)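 Greenhouse injury scoring (0–100, complete control = 100) at approximately ten days follows simultaneous pre- and postemergence application. Soil received a directed spray after seeding; seedlings of 2–10 cm at the one- to two-leaf stage were sprayed to runoff.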

velvetleaf [2] = assay: Test A pre-/postemergence herbicide test; format: in vivo, Abutilon theophrasti
How it was run: as §1

rice = assay: Test B pre-/postemergence herbicide test; format: in vivo, Oryza sativa; conditions: preemergence; for Plant response rating, Rice: 500 g ai/ha, visual rating 0-100, 0 no effect, 100 complete control
How it was run: (§2)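 Pre: seeds sown, then sprayed. Post: 1–4-leaf plants (2–18 cm) sprayed at the same time. Paddy: flooded, treated at 2-leaf stage. Formulation: non-phytotoxic solvent with surfactant. Greenhouse 13–15 days; visual 0–100 score relative to controls.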

velvetleaf [3] = assay: Test B pre-/postemergence herbicide test; format: in vivo, Abutilon theophrasti; conditions: for Velvetleaf plant response rating: postemergence, visual rating, scale 0 (no effect) to 100 (complete control)
How it was run: as §2

bermudagrass = assay: Test C pre-/postemergence herbicide test; format: in vivo, Cynodon dactylon; conditions: for Bermudagrass plant response rating: 500 g ai/ha
How it was run: (§3)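 Pre/post spray; non-phytotoxic solvent + surfactant. Post-timing 1–4 leaves, 2–18 cm. Read-out: visual % control vs untreated, day 12–14, greenhouse.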

woolly cupgrass = assay: Test C pre-/postemergence herbicide test; format: in vivo, Eriochloa villosa; conditions: for Cupgrass, Woolly plant response rating: 500 g ai/ha
How it was run: as §3

goosegrass = assay: Test C pre-/postemergence herbicide test; format: in vivo, Eleusine indica; conditions: for Goosegrass plant response rating: 500 g ai/ha
How it was run: as §3

morningglory [4] = assay: Test C pre-/postemergence herbicide test; format: in vivo, Ipomoea coccinea; parameters: key to Plant response rating, Morningglory: 0 = no effect, 100 = complete control; conditions: for Morningglory plant response rating: 500 g ai/ha
How it was run: as §3

soybean = assay: Test C pre-/postemergence herbicide test; format: in vivo, Glycine max; conditions: for Soybean plant response rating: 500 g ai/ha
How it was run: as §3

[5] = Postemergence, 500 g ai/ha, 0 to 100 scale, 0 no effect, 100 complete control
[6] = Postemergence, 2000 g ai/ha, 0 to 100 scale, 0 no effect, 100 complete control
[7] = Preemergence, 2000 g ai/ha, visual rating, 0 to 100 scale (0 no effect, 100 complete control)
[8] = preemergence, 500 g ai/ha, visual injury, 0 to 100 scale (0 no effect, 100 complete control)
[9] = 500 g ai/ha, visual rating 0-100, 0 no effect, 100 complete control, preemergence
[10] = preemergence, 125 g ai/ha, 0 to 100 scale, 0 is no effect, 100 is complete control
[11] = 125 g ai/ha, scale 0 (no effect) to 100 (complete control), visual, 12 to 14 days, preemergence
[12] = 250 g ai/ha, scale 0 to 100 (0 no effect, 100 complete control), visual, 12 to 14 days, preemergence
[13] = Postemergence, 250 g ai/ha, scale 0 to 100, 0 no effect, 100 complete control
[14] = Preemergence, scale 0 to 100, 0 no effect, 100 complete control
[15] = postemergence, 125 g ai/ha, scale 0 to 100
[16] = Postemergence, 250 g ai/ha, 0 to 100 scale, 0 no effect, 100 complete control
[17] = Postemergence, 1000 g ai/ha, 0 to 100 scale, 0 no effect, 100 complete control
[18] = Preemergence, 1000 g ai/ha, visual rating, 0 to 100 scale (0 no effect, 100 complete control)
[19] = preemergence, 250 g ai/ha, visual injury, 0 to 100 scale (0 no effect, 100 complete control)
[20] = 250 g ai/ha, scale 0-100, preemergence
[21] = 62 g ai/ha, preemergence, scale 0 to 100

CCn1nc(C(C)(C)C)cc1C(=O)Nc1cccc(SC(F)(F)F)c1 [Compound 130]
Morningglory plant response rating (morningglory [1]; [5]): 20
Plant response rating, Morningglory (morningglory [1]; [6]): 25
Morningglory plant response rating (morningglory [1]; Preemergence, 500 g ai/ha, visual rating, 0 to 100 scale (0 no effect, 100 complete control)): 10
Morningglory plant response rating (morningglory [1]; [7]): 15
Velvetleaf plant response rating (velvetleaf [2]; [5]): 20
Plant response rating, Velvetleaf (velvetleaf [2]; [6]): 20
Velvetleaf plant response rating (velvetleaf [2]; [7]): 30
Velvetleaf plant response rating (velvetleaf [2]; [8]): 20
Plant response rating, Rice (rice): 0
Plant response rating, Velvetleaf (velvetleaf [3]; [9]): 90
Velvetleaf plant response rating (velvetleaf [3]; 125 g ai/ha): 70
Velvetleaf plant response rating (velvetleaf [3]; 500 g ai/ha): 70
Plant response rating, Velvetleaf (velvetleaf [3]; [10]): 10
Plant response rating (0 = no effect, 100 = complete control), Bermudagrass (bermudagrass; 62 g ai/ha, preemergence): 60
Plant response rating, Bermudagrass (bermudagrass; [11]): 90
Plant response rating, Bermudagrass (bermudagrass; [12]): 100
Bermudagrass plant response rating (bermudagrass; Postemergence, scale 0 to 100): 90
Plant response rating, Bermudagrass (bermudagrass; [13]): 90
Bermudagrass plant response rating (bermudagrass; [14]): 100
Plant response rating, Bermudagrass (bermudagrass; [15]): 85
Plant response rating (0 = no effect, 100 = complete control), Cupgrass, Woolly (woolly cupgrass; 62 g ai/ha, preemergence): 5
Plant response rating, Cupgrass, Woolly (woolly cupgrass; [11]): 10
Plant response rating, Cupgrass, Woolly (woolly cupgrass; [12]): 40
Cupgrass, Woolly plant response rating (woolly cupgrass; Postemergence, scale 0 to 100): 80
Plant response rating, Cupgrass, Woolly (woolly cupgrass; [13]): 60
Cupgrass, Woolly plant response rating (woolly cupgrass; [14]): 70
Plant response rating, Cupgrass, Woolly (woolly cupgrass; [15]): 50
Plant response rating (0 = no effect, 100 = complete control), Goosegrass (goosegrass; 62 g ai/ha, preemergence): 10
Plant response rating, Goosegrass (goosegrass; [11]): 20
Goosegrass plant response rating (goosegrass; Postemergence, scale 0 to 100): 60
Plant response rating, Goosegrass (goosegrass; [13]): 60
Goosegrass plant response rating (goosegrass; [14]): 50
Plant response rating, Goosegrass (goosegrass; [15]): 20
Plant response rating (0 = no effect, 100 = complete control), Morningglory (morningglory [4]; 62 g ai/ha, preemergence): 0
Plant response rating, Morningglory (morningglory [4]; [11]): 0
Morningglory plant response rating (morningglory [4]; Postemergence, scale 0 to 100): 100
Plant response rating, Morningglory (morningglory [4]; [13]): 80
Morningglory plant response rating (morningglory [4]; [14]): 30
Plant response rating, Morningglory (morningglory [4]; [15]): 40
Plant response rating (0 = no effect, 100 = complete control), Soybean (soybean; 62 g ai/ha, preemergence): 0
Plant response rating, Soybean (soybean; [11]): 0
Soybean plant response rating (soybean; Postemergence, scale 0 to 100): 70
Plant response rating, Soybean (soybean; [13]): 40
Soybean plant response rating (soybean; [14]): 10
Plant response rating, Soybean (soybean; [15]): 40

CCn1nc(C(C)(C)C)cc1C(=O)Nc1cccc(SC)c1 [Compound 131]
Morningglory plant response rating (morningglory [1]; [16]): 15
Plant response rating, Morningglory (morningglory [1]; [17]): 15
Morningglory plant response rating (morningglory [1]; [18]): 35
Morningglory plant response rating (morningglory [1]; [19]): 15
Velvetleaf plant response rating (velvetleaf [2]; [16]): 15
Plant response rating, Velvetleaf (velvetleaf [2]; [17]): 10
Velvetleaf plant response rating (velvetleaf [2]; [18]): 60
Velvetleaf plant response rating (velvetleaf [2]; [19]): 10
Plant response rating, Rice (rice): 50
Plant response rating, Velvetleaf (velvetleaf [3]; [9]): 100
Velvetleaf plant response rating (velvetleaf [3]; 125 g ai/ha): 10
Velvetleaf plant response rating (velvetleaf [3]; 500 g ai/ha): 40
Plant response rating, Velvetleaf (velvetleaf [3]; [10]): 50
Plant response rating, Bermudagrass (bermudagrass; 31 g ai/ha, scale 0 to 100, 0 no effect, 100 complete control, last section of Table C (species set of preemergence test)): 0
Plant response rating (0 = no effect, 100 = complete control), Bermudagrass (bermudagrass; 62 g ai/ha, preemergence): 15
Plant response rating, Bermudagrass (bermudagrass; [11]): 90
Plant response rating, Bermudagrass (bermudagrass; [12]): 95
Plant response rating (0 = no effect, 100 = complete control), Cupgrass, Woolly (woolly cupgrass; 62 g ai/ha, preemergence): 0
Plant response rating, Cupgrass, Woolly (woolly cupgrass; [11]): 0
Plant response rating, Cupgrass, Woolly (woolly cupgrass; [12]): 15
Plant response rating (0 = no effect, 100 = complete control), Goosegrass (goosegrass; 62 g ai/ha, preemergence): 15
Plant response rating, Goosegrass (goosegrass; [11]): 65
Plant response rating (0 = no effect, 100 = complete control), Morningglory (morningglory [4]; 62 g ai/ha, preemergence): 0
Plant response rating, Morningglory (morningglory [4]; [11]): 0
Plant response rating (0 = no effect, 100 = complete control), Soybean (soybean; 62 g ai/ha, preemergence): 0
Plant response rating, Soybean (soybean; [11]): 0

CC(=NO)c1cccc(NC(=O)c2sc(C(C)(C)C)nc2C)c1 [Compound 195]
Morningglory plant response rating (morningglory [1]; [5]): 10
Plant response rating, Morningglory (morningglory [1]; [6]): 10
Morningglory plant response rating (morningglory [1]; [7]): 10
Morningglory plant response rating (morningglory [1]; [8]): 5
Velvetleaf plant response rating (velvetleaf [2]; [5]): 0
Plant response rating, Velvetleaf (velvetleaf [2]; [6]): 15
Velvetleaf plant response rating (velvetleaf [2]; [7]): 15
Velvetleaf plant response rating (velvetleaf [2]; [8]): 0
Rice plant response rating (0 to 100 scale) (rice; 125 g ai/ha, 0 = no effect, 100 = complete control): 10
Plant response rating, Rice (rice): 20
Velvetleaf plant response rating (0 to 100 scale) (velvetleaf [3]; 125 g ai/ha, 0 = no effect, 100 = complete control, preemergence): 10
Plant response rating, Velvetleaf (velvetleaf [3]; [9]): 20
Velvetleaf plant response rating (velvetleaf [3]; 125 g ai/ha): 20
Velvetleaf plant response rating (velvetleaf [3]; 500 g ai/ha): 40
Plant response rating, Bermudagrass (bermudagrass; 62 g ai/ha, preemergence, scale 0 to 100, 0 no effect, 100 complete control): 0
Plant response rating, Bermudagrass (bermudagrass; [11]): 0
Plant response rating, Bermudagrass (bermudagrass; [20]): 30
Bermudagrass plant response rating (bermudagrass; [14]): 65
Plant response rating, Cupgrass, Woolly (woolly cupgrass; [21]): 0
Plant response rating, Cupgrass, Woolly (woolly cupgrass; [11]): 0
Plant response rating, Cupgrass, Woolly (woolly cupgrass; [20]): 10
Cupgrass, Woolly plant response rating (woolly cupgrass; [14]): 10
Plant response rating, Goosegrass (goosegrass; [21]): 100
Plant response rating, Goosegrass (goosegrass; [11]): 100
Plant response rating, Goosegrass (goosegrass; [20]): 100
Goosegrass plant response rating (goosegrass; [14]): 100
Plant response rating, Morningglory (morningglory [4]; [21]): 0
Plant response rating, Morningglory (morningglory [4]; [11]): 0
Plant response rating, Morningglory (morningglory [4]; [20]): 0
Morningglory plant response rating (morningglory [4]; [14]): 0
Plant response rating, Soybean (soybean; [21]): 0
Plant response rating, Soybean (soybean; [11]): 0
Plant response rating, Soybean (soybean; [20]): 0
Soybean plant response rating (soybean; [14]): 0
